Laboratory results as given in patent publication US6339045B1, “N-(unsubstituted or substituted)-4-substituted-6-(unsubstituted or substituted)phenoxy-2-pyridinecarboxamides or thiocarboxamides, processes for producing the same, and herbicides” (Kureha Kagaku Kogyo Kabushiki Kaisha, priority 1995, dated 2002).

Columns and labels:
Assay in all cases: Herbicidal effect by foliage and soil treatment
Assay type in all cases: in vivo
Conditions in all cases: 10 g ai/10a, evaluated after 14 days
[1] = test system: velvetleaf (Abutilon theophrasti)
How it was run: (§1)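 Post-emergence spray, cotyledon to bifoliate stage; Tween 20/water vehicle, fixed dose per area; greenhouse 19–25 °C; 14 d; visual growth rating vs untreated.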

[2] = test system: common chickweed (Stellaria media)
How it was run: as §1

[3] = test system: wild chamomile (Matricaria chamomilla)
How it was run: as §1

[4] = test system: kediock (Sinapis arvensis)
How it was run: as §1

[5] = test system: black nightshade (Solanum nigrum)
How it was run: as §1

[6] = test system: redroot pigweed (Amaranthus retroflexus)
How it was run: as §1

[7] = test system: field bindweed (Convolvulus arvensis)
How it was run: as §1

[8] = test system: ivyleafspeedwell (Veronica hederaefolia)
How it was run: as §1

[9] = test system: common blackjack (Bidens pilosa)
How it was run: as §1

[10] = test system: cleavers (Galium aparine)
How it was run: as §1

[11] = test system: sicklepod (Cassia obtusifolia)
How it was run: as §1

Structure (SMILES)	herbicidal activity rating, AT (Abutilon theophrasti) [1]	herbicidal activity rating, SM (Stellaria media) [2]	herbicidal activity rating, MC (Matricaria chamomilla) [3]	herbicidal activity rating, SA (Sinapis arvensis) [4]	herbicidal activity rating, SN (Solanum nigrum) [5]	herbicidal activity rating, AR (Amaranthus retroflexus) [6]	herbicidal activity rating, CA (Convolvulus arvensis) [7]	herbicidal activity rating, VH (Veronica hederaefolia) [8]	herbicidal activity rating, BP (Bidens pilosa) [9]	herbicidal activity rating, GA (Galium aparine) [10]	herbicidal activity rating, CO (Cassia obtusifolia) [11]
COc1cc(Oc2cccc(C(F)(F)F)c2)nc(C(=O)NC2CCCC2)c1 [Compound I-50]	4 (percentage of weeds killed was not less than 60% and less than 80%)	5 (percentage of weeds killed was not less than 80%)	5 (percentage of weeds killed was not less than 80%)	5 (percentage of weeds killed was not less than 80%)	5 (percentage of weeds killed was not less than 80%)	5 (percentage of weeds killed was not less than 80%)	5 (percentage of weeds killed was not less than 80%)	5 (percentage of weeds killed was not less than 80%)	5 (percentage of weeds killed was not less than 80%)	5 (percentage of weeds killed was not less than 80%)	4 (percentage of weeds killed was not less than 60% and less than 80%)
CCNC(=O)c1cc(OC)cc(Oc2cccc(C(F)(F)F)c2)n1 [Compound I-51]	5 (percentage of weeds killed was not less than 80%)	5 (percentage of weeds killed was not less than 80%)	4 (percentage of weeds killed was not less than 60% and less than 80%)	5 (percentage of weeds killed was not less than 80%)	5 (percentage of weeds killed was not less than 80%)	5 (percentage of weeds killed was not less than 80%)	4 (percentage of weeds killed was not less than 60% and less than 80%)	5 (percentage of weeds killed was not less than 80%)	3 (percentage of weeds killed was not less than 40% and less than 60%)	5 (percentage of weeds killed was not less than 80%)	5 (percentage of weeds killed was not less than 80%)
CCCCCNC(=O)c1cc(OC)cc(Oc2cccc(C(F)(F)F)c2)n1 [Compound I-52]	4 (percentage of weeds killed was not less than 60% and less than 80%)	5 (percentage of weeds killed was not less than 80%)	3 (percentage of weeds killed was not less than 40% and less than 60%)	5 (percentage of weeds killed was not less than 80%)	5 (percentage of weeds killed was not less than 80%)	5 (percentage of weeds killed was not less than 80%)	5 (percentage of weeds killed was not less than 80%)	5 (percentage of weeds killed was not less than 80%)	3 (percentage of weeds killed was not less than 40% and less than 60%)	5 (percentage of weeds killed was not less than 80%)	4 (percentage of weeds killed was not less than 60% and less than 80%)
CSc1cc(Oc2cccc(C(F)(F)F)c2)nc(C(=O)NC(C)C)c1 [Compound I-55, N-(i-propyl)-4-methylmercapto-6-{3-(trifluoromethyl)phenoxy}-2-pyridine carboxamide]	4 (percentage of weeds killed was not less than 60% and less than 80%)	4 (percentage of weeds killed was not less than 60% and less than 80%)	3 (percentage of weeds killed was not less than 40% and less than 60%)	4 (percentage of weeds killed was not less than 60% and less than 80%)	5 (percentage of weeds killed was not less than 80%)	5 (percentage of weeds killed was not less than 80%)	4 (percentage of weeds killed was not less than 60% and less than 80%)	5 (percentage of weeds killed was not less than 80%)	4 (percentage of weeds killed was not less than 60% and less than 80%)	5 (percentage of weeds killed was not less than 80%)	5 (percentage of weeds killed was not less than 80%)
CNc1cc(Oc2cccc(C(F)(F)F)c2)nc(C(=O)NC(C)C)c1 [Compound I-56, N-(i-propyl)-4-methylamino-6-{3-(trifluoromethyl)phenoxy}-2-pyridine carboxamide]	5 (percentage of weeds killed was not less than 80%)	4 (percentage of weeds killed was not less than 60% and less than 80%)	4 (percentage of weeds killed was not less than 60% and less than 80%)	5 (percentage of weeds killed was not less than 80%)	5 (percentage of weeds killed was not less than 80%)	5 (percentage of weeds killed was not less than 80%)	5 (percentage of weeds killed was not less than 80%)	5 (percentage of weeds killed was not less than 80%)	4 (percentage of weeds killed was not less than 60% and less than 80%)	5 (percentage of weeds killed was not less than 80%)	4 (percentage of weeds killed was not less than 60% and less than 80%)
CC(C)NC(=O)c1cc(N(C)C)cc(Oc2cccc(C(F)(F)F)c2)n1 [Compound I-57, N-(i-propyl)-4-dimethylamino-6-{3-(trifluoromethyl)phenoxy}-2-pyridine carboxamide]	4 (percentage of weeds killed was not less than 60% and less than 80%)	4 (percentage of weeds killed was not less than 60% and less than 80%)	3 (percentage of weeds killed was not less than 40% and less than 60%)	5 (percentage of weeds killed was not less than 80%)	5 (percentage of weeds killed was not less than 80%)	5 (percentage of weeds killed was not less than 80%)	4 (percentage of weeds killed was not less than 60% and less than 80%)	5 (percentage of weeds killed was not less than 80%)	5 (percentage of weeds killed was not less than 80%)	5 (percentage of weeds killed was not less than 80%)	5 (percentage of weeds killed was not less than 80%)
CC(C)NC(=O)c1cc(N(C)Cc2ccccc2)cc(Oc2cccc(C(F)(F)F)c2)n1 [Compound I-58, N-(i-propyl)-4-{methyl(phenylmethyl)amino}-6-{3-(trifluoromethyl)phenoxy}-2-pyridine carboxamide]	4 (percentage of weeds killed was not less than 60% and less than 80%)	4 (percentage of weeds killed was not less than 60% and less than 80%)	3 (percentage of weeds killed was not less than 40% and less than 60%)	5 (percentage of weeds killed was not less than 80%)	5 (percentage of weeds killed was not less than 80%)	5 (percentage of weeds killed was not less than 80%)	5 (percentage of weeds killed was not less than 80%)	5 (percentage of weeds killed was not less than 80%)	2 (percentage of weeds killed was not less than 20% and less than 40%)	5 (percentage of weeds killed was not less than 80%)	5 (percentage of weeds killed was not less than 80%)
CCOc1cc(Oc2cccc(C(F)(F)F)c2)nc(C(=O)NC(C)C)c1 [Compound I-59]	4 (percentage of weeds killed was not less than 60% and less than 80%)	5 (percentage of weeds killed was not less than 80%)	4 (percentage of weeds killed was not less than 60% and less than 80%)	5 (percentage of weeds killed was not less than 80%)	5 (percentage of weeds killed was not less than 80%)	5 (percentage of weeds killed was not less than 80%)	4 (percentage of weeds killed was not less than 60% and less than 80%)	5 (percentage of weeds killed was not less than 80%)	3 (percentage of weeds killed was not less than 40% and less than 60%)	5 (percentage of weeds killed was not less than 80%)	5 (percentage of weeds killed was not less than 80%)
